Experiment [1] concerns erythroid progenitor cells (EPCs). The experiment is described as follows: Fetal hemoglobin (HbF) ELISA in day 7 erythroid progenitor cells.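 Note: for fetal hemoglobin induction normalized to vehicle-treated cells.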 In kind it is cell-based, human. Particulars: Homo sapiens, Erythroid progenitor cell, HbF ELISA, day 7 EPCs, 5 days; read-out: EPC ELISA (pEC50 category) (converted). The procedure, abridged:
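CD34+-derived EPCs, 1,000 cells/well, rhEPO 3 U/mL; Compound A 22-pt series, […]; 5 d, 37° C, 5% CO2. Freeze-thaw lysis, anti-HbF capture + HRP anti-HbF, TMB, OD450. Normalized to DMSO wells.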
In general terms: ELISA stands for enzyme-linked immunosorbent assay.

A further experiment addresses DNMT1 (Homo sapiens, UniProt P26358). Put plainly: DNMT1 biochemical activity, breaklight assay and/or SPA assay.
Where [2] appears, read: binned activity in either the breaklight or the SPA assay, read-out: DNMT1 BioChemical (pIC50 category) (converted).
Where [3] appears, read: breaklight assay and/or SPA assay, repeated experimental runs, read-out: average pIC50 against DNMT1 (converted).
[4] abbreviates: binned activity in either the breaklight or the SPA assay.

This note sets out measurements from patent US10975056B2 (GlaxoSmithKline Intellectual Property Development Limited, priority 2016, dated 2021).

Structures are written as SMILES. Counter-ions that a name gives are not always drawn. Like-named read-outs stand apart in the source and are kept apart here. A value given as a limit tells only on which side of the number the result lay.

DNMT1, sequence (P26358 whole entry, looked up): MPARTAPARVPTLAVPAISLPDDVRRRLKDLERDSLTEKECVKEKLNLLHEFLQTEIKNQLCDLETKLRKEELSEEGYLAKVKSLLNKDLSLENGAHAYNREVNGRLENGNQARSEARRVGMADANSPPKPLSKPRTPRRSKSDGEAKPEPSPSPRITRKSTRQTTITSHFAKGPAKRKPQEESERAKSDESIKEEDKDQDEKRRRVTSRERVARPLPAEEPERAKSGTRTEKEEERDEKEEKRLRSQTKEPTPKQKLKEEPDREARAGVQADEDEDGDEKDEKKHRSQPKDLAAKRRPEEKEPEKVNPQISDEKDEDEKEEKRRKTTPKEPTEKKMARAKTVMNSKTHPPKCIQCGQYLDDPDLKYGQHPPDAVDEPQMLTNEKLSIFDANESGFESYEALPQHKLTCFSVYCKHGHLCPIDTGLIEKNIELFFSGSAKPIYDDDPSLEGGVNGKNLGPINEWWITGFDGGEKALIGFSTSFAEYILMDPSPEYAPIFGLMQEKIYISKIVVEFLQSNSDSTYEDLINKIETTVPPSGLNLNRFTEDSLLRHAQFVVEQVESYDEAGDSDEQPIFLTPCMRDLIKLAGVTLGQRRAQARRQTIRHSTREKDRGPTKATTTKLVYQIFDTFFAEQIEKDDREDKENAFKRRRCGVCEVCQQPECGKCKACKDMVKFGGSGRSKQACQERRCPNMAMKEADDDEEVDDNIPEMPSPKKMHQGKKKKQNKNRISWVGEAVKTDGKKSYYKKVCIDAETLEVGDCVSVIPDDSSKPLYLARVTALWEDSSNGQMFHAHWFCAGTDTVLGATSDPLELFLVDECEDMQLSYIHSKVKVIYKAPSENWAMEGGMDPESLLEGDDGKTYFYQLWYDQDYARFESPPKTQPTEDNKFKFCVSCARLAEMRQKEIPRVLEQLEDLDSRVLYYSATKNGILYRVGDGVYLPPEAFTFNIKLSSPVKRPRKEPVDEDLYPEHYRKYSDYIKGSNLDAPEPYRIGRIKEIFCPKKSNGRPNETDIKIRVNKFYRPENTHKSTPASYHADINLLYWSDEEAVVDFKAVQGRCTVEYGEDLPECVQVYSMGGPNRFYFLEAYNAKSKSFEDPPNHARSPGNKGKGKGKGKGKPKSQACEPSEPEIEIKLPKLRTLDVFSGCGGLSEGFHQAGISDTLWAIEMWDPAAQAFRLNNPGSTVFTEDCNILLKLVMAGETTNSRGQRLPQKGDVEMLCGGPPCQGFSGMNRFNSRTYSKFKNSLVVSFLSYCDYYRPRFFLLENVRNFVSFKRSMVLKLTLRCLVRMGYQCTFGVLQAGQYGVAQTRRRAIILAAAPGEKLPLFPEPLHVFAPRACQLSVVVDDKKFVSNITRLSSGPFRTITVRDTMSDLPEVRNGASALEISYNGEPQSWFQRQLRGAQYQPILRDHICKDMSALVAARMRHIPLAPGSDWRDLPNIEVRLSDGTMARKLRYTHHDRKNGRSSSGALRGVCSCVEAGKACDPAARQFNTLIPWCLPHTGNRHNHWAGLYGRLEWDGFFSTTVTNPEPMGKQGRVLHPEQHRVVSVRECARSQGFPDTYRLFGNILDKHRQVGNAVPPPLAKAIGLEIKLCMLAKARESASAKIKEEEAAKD

Turning to `CCc1c(C#N)c(SCc2ccc(CNC(=O)OC(C)(C)C)cc2)nc(N2CCCN(C)CC2)c1C#N` [Example 69, tert-Butyl 4-(((3,5-dicyano-4-ethyl-6-(4-methyl-1,4-diazepan-1-yl)pyridin-2-yl)thio)methyl)benzylcarbamate], in experiment [1], the EC50 is greater than 31600 nM. The IC50 at DNMT1 (setting [2]) was 1000 to 31600 nM; at DNMT1 (setting [3]), no less than 1000 nM.

As to `CCc1c(C#N)c(SC(C(N)=O)c2ccccc2)nc(N2CCN(Cc3ccncc3)CC2)c1C#N` (stereo not shown) [Example 173, 2-((3,5-Dicyano-4-ethyl-6-(4-(pyridin-4-ylmethyl)piperazin-1-yl)pyridin-2-yl)thio)-2-phenylacetamide], in experiment [1], the EC50 is 316 to 1000 nM. For the same molecule, the IC50 on DNMT1 (setting [2]) is 316 to 1000 nM.

On to `CCc1c(C#N)c(SC(C(N)=O)c2ccccc2)nc(N2CCC(OCCOC(=O)[C@@H](N)C(C)C)CC2)c1C#N` (stereo partly drawn) [Example 153, (2S)-2-((1-(6-((2-Amino-2-oxo-1-phenylethyl)thio)-3,5-dicyano-4-ethylpyridin-2-yl)piperidin-4-yl)oxy)ethyl 2-amino-3-methylbutanoate], for which, in experiment [1], the EC50 was 316 to 1000 nM. Also, the “DNMT1 BioChemical (pIC50 category)” value at DNMT1 (setting [4]) is on record as “D (Category D: ≥6.5)”.

As to `CCc1c(C#N)c(SC(C(N)=O)c2ccccc2)nc(N2CCC(CN(C)C)C2)c1C#N` (stereo not shown) [Example 512, 2-((3,5-dicyano-6-(3-((dimethylamino)methyl)pyrrolidin-1-yl)-4-ethylpyridin-2-yl)thio)-2-phenylacetamide], the EC50 in experiment [1] was less than 316 nM. In addition, the “DNMT1 BioChemical (pIC50 category)” value on DNMT1 (setting [4]) is “D (Category D: ≥6.5)”.

Take `CCc1c(C#N)c(SC(C(N)=O)c2ccccc2)nc(N2CCC(O)(C(N)=O)CC2)c1C#N` (stereo not shown) [Example 258, 1-(6-((2-Amino-2-oxo-1-phenylethyl)thio)-3,5-dicyano-4-ethylpyridin-2-yl)-4-hydroxy piperidine-4-carboxamide]: the EC50 in experiment [1] is 1000 to 31600 nM. The IC50 at DNMT1 (setting [2]) was 316 to 1000 nM.

For the molecule `CCc1c(C#N)c(SCc2ccc(NS(C)(=O)=O)cc2)nc(N(C)C)c1C#N` [Example 287, N-(4-(((3,5-Dicyano-6-(dimethylamino)-4-ethylpyridin-2-yl)thio)methyl)phenyl) methanesulfonamide], the EC50 in experiment [1] is 1000 to 31600 nM. The IC50 on DNMT1 (setting [2]) was 316 to 1000 nM.

Take `CCc1c(C#N)c(SC(C(N)=O)c2ccccc2)nc(N(C)CC(=O)N2CCCC2)c1C#N` (stereo not shown) [Example 620, 2-((3,5-dicyano-4-ethyl-6-(methyl(2-oxo-2-(pyrrolidin-1-yl)ethyl)amino)pyridin-2-yl)thio)-2-phenylacetamide]: the EC50 in experiment [1] is less than 316 nM. Moreover, at DNMT1 (setting [4]), the “DNMT1 BioChemical (pIC50 category)” value is on record as “D (Category D: ≥6.5)”.

As for `CCc1c(C#N)c(SCc2ccc(CNC(C)=O)cc2)nc(N2CCC(O)C2)c1C#N` (stereo not shown) [Example 331, N-(4-(((3,5-Dicyano-4-ethyl-6-(3-hydroxypyrrolidin-1-yl)pyridin-2-yl)thio)methyl)benzyl)acetamide], the EC50 in experiment [1] is greater than 31600 nM. The IC50 on DNMT1 (setting [2]) was 316 to 1000 nM.

On to `CSc1c(C#N)c(SCc2ccc(CNC(C)=O)cc2)nc(N2CCCN(C)CC2)c1C#N` [Example 101, N-(4-(((3,5-Dicyano-6-(4-methyl-1,4-diazepan-1-yl)-4-(methylthio)pyridin-2-yl)thio)methyl)benzyl)acetamide], for which the EC50 in experiment [1] is 316 to 1000 nM. Moreover, at DNMT1 (setting [4]), the “DNMT1 BioChemical (pIC50 category)” value is reported as “D (Category D: ≥6.5)”.

`CCc1c(C#N)c(SC(C(N)=O)c2ccccc2)nc(N2CC(OC(N)=O)C2)c1C#N` (stereo not shown) [Example 259, 1-(6-((2-Amino-2-oxo-1-phenylethylthio-3,5-dicyano-4-ethylpyridin-2-yl)azetidin-3-yl carbamate]: the EC50 in experiment [1] is 316 to 1000 nM. Further, on DNMT1 (setting [4]), the “DNMT1 BioChemical (pIC50 category)” value is “D (Category D: ≥6.5)”.

As for `N#Cc1c(N2CCCNCC2)nc(SC(C(N)=O)c2ccccc2)c2c1CCC2` (stereo not shown) [Example 171, 2-((4-Cyano-3-(1,4-diazepan-1-yl)-6,7-dihydro-5H-cyclopenta[c]pyridin-1-yl)thio)-2-phenylacetamide], the EC50 in experiment [1] was greater than 31600 nM. On DNMT1 (setting [2]), the IC50 is 316 to 1000 nM.

For the molecule `CCc1c(C#N)c(SCc2ccc(CNC(=O)C(C)C)cc2)nc(N2CCCN(C)CC2)c1C#N` [Example 88, N-(4-(((3,5-Dicyano-4-ethyl-6-(4-methyl-1,4-diazepan-1-yl)pyridin-2-yl)thio)methyl)benzyl)isobutyramide], the EC50 in experiment [1] was greater than 31600 nM. Also, the IC50 at DNMT1 (setting [2]) is 316 to 1000 nM.

Turning to `CCc1c(C#N)c(SC(C(N)=O)c2cccc(OCCN(C)C)c2)nc(N(C)C)c1C#N` (stereo not shown) [Example 407, 2-(3,5-dicyano-6-(dimethylamino)-4-ethylpyridin-2-ylthio)-2-(3-(2-(dimethylamino)ethoxy)phenyl)acetamide], the EC50 in experiment [1] was 1000 to 31600 nM. Moreover, at DNMT1 (setting [4]), the “DNMT1 BioChemical (pIC50 category)” value is given as “D (Category D: ≥6.5)”.

Take `CCc1c(C#N)c(SC(C(N)=O)c2ccccc2)nc(N2CCC(ONC(=N)N)CC2)c1C#N` (stereo not shown) [Example 634, 2-((3,5-dicyano-4-ethyl-6-(4-(guanidinooxy)piperidin-1-yl)pyridin-2-yl)thio)-2-phenylacetamide]: the EC50 in experiment [1] is 1000 to 31600 nM. In addition, the “DNMT1 BioChemical (pIC50 category)” value at DNMT1 (setting [4]) is “D (Category D: ≥6.5)”.

Regarding `CCc1c(C#N)c(SCc2ccccc2)nc(N2CCC(NC(=O)C(C)(C)N)CC2)c1C#N` [Example 95, 2-Amino-N-(1-(6-(benzylthio)-3,5-dicyano-4-ethylpyridin-2-yl)piperidin-4-yl)-2-methylpropanamide, Formic Acid Salt], the EC50 in experiment [1] was 1000 to 31600 nM. In addition, the IC50 at DNMT1 (setting [2]) was 316 to 1000 nM.

For the molecule `CCc1c(C#N)c(SC(C(N)=O)c2ccccc2)nc(N2CCC(NCC(C)(C)C)C(F)C2)c1C#N` (stereo not shown) [Example 409, 2-((3,5-dicyano-4-ethyl-6-(3-fluoro-4-A(neopentylamino)piperidin-1-yl)pyridin-2-yl)thio)-2-phenylacetamide], the EC50 in experiment [1] is less than 316 nM. On DNMT1 (setting [4]), the “DNMT1 BioChemical (pIC50 category)” value is reported as “D (Category D: ≥6.5)”. In addition, the “average pIC50 against DNMT1” value on DNMT1 (breaklight assay and/or SPA assay, repeated experimental runs) is greater than 6.5. Further, on DNMT1 (setting [3]), the IC50 is 158 nM.

Turning to `CCc1c(C#N)c(SC(C(N)=O)c2ccccc2)nc(N2CCC(N3CCC(N)C3=O)CC2)c1C#N` (stereo not shown) [Example 270], in experiment [1], the EC50 was 1000 to 31600 nM. Moreover, the “DNMT1 BioChemical (pIC50 category)” value on DNMT1 (setting [4]) was “D (Category D: ≥6.5)”.

In the case of `CCc1c(C#N)c(SC(C(N)=O)c2ccccc2)nc(N2CCC(N3CC(OC)C3)CC2)c1C#N` (stereo not shown) [Example 697, 2-((3,5-dicyano-4-ethyl-6-(4-(3-methoxyazetidin-1-yl)piperidin-1-yl)pyridin-2-yl)thio)-2-phenylacetamide], in experiment [1], the EC50 was less than 316 nM. On DNMT1 (setting [4]), the “DNMT1 BioChemical (pIC50 category)” value was “D (Category D: ≥6.5)”.

For `CCc1c(C#N)c(SC(C(N)=O)c2ccsc2)nc(N2CCNCC2)c1C#N` (stereo not shown) [Example 263, 2-(3,5-Dicyano-4-ethyl-6-(piperazin-1-yl)pyridin-2-ylthio)-2-(thiophen-3-yl)acetamide], the EC50 in experiment [1] is 316 to 1000 nM. For the same molecule, the IC50 at DNMT1 (setting [2]) is 316 to 1000 nM.

As to `CCc1c(C#N)c(S[C@H](C(N)=O)c2ccccc2)nc(N2C[C@H](O)CO2)c1C#N` (single isomer, unassigned) [Example 694], the EC50 in experiment [1] is 1000 to 31600 nM. Besides, the “DNMT1 BioChemical (pIC50 category)” value on DNMT1 (setting [4]) was “D (Category D: ≥6.5)”.

For `CCc1c(C#N)c(SCc2ccc(-c3ccccn3)cc2)nc(N2CCC(N3CCCC3)CC2)c1C#N` [Example 350, 4-Ethyl-2-((4-(pyridin-2-yl)benzyl)thio)-6-(4-(pyrrolidin-1-yl)piperidin-1-yl)pyridine-3,5-dicarbonitrile], in experiment [1], the EC50 is greater than 31600 nM. In addition, at DNMT1 (setting [2]), the IC50 was 316 to 1000 nM.

As for `CCc1c(C#N)c(SC(C(N)=O)c2ccccc2)nc(N2CCO[C@@H](CNCC(C)(C)C)C2)c1C#N` (stereo partly drawn) [Example 567, 2-((3,5-dicyano-4-ethyl-6-((S)-2-((neopentylamino)methyl)morpholino)pyridin-2-yl)thio)-2-phenylacetamide], in experiment [1], the EC50 is less than 316 nM. For the same molecule, the “DNMT1 BioChemical (pIC50 category)” value on DNMT1 (setting [4]) is given as “D (Category D: ≥6.5)”.

Turning to `CCc1c(C#N)c(SC(C(N)=O)c2ccccc2)nc(N(C)CC(=O)N2CCOCC2)c1C#N` (stereo not shown) [Example 623, 2-((3,5-dicyano-4-ethyl-6-(methyl(2-morpholino-2-oxoethyl)amino)pyridin-2-yl)thio)-2-phenylacetamide], in experiment [1], the EC50 was less than 316 nM. The “DNMT1 BioChemical (pIC50 category)” value at DNMT1 (setting [4]) is reported as “D (Category D: ≥6.5)”.

As for `CCc1c(C#N)c(SC(C(N)=O)c2ccccc2)nc(N(C)CCOCCN)c1C#N` (stereo not shown) [Example 628, 2-((6-((2-(2-aminoethoxy)ethyl)(methyl)amino)-3,5-dicyano-4-ethylpyridin-2-yl)thio)-2-phenylacetamide], in experiment [1], the EC50 is less than 316 nM. Further, the “DNMT1 BioChemical (pIC50 category)” value on DNMT1 (setting [4]) was “D (Category D: ≥6.5)”.

Regarding `CCc1c(C#N)c(SCc2ccc(N(C)S(C)(=O)=O)cc2)nc(N2CCC(NC(=O)[C@H](C)N)CC2)c1C#N` [Example 585, (S)-2-amino-N-(1-(3,5-dicyano-4-ethyl-6-((4-(N-methylmethylsulfonamido)benzyl)thio)pyridin-2-yl)piperidin-4-yl)propanamide], the EC50 in experiment [1] was less than 316 nM. In addition, at DNMT1 (setting [4]), the “DNMT1 BioChemical (pIC50 category)” value is recorded as “D (Category D: ≥6.5)”.

On to `CCc1c(C#N)c(SC(C(N)=O)c2ccccc2)nc(N(C)CC(=O)NCCN)c1C#N` (stereo not shown) [Example 630, 2-((6-((2-amino-2-oxo-1-phenylethyl)thio)-3,5-dicyano-4-ethylpyridin-2-yl)(methyl)amino)-N-(2-aminoethyl)acetamide hydrochloride], for which the EC50 in experiment [1] is less than 316 nM. The “DNMT1 BioChemical (pIC50 category)” value at DNMT1 (setting [4]) is “D (Category D: ≥6.5)”.
